Laboratory results taken from US20160331662A1, “Compositions that Inhibit and Prevent the Formation of Dental Caries and Methods of Using the Same” (priority 2014, published 2016).

Tests used:
iSRCR1 [1] = target: T1, iSRCR1 (Homo sapiens, UniProt Q9UGM3); experiment: Competition adherence SPR on immobilized iSRCR1; format: binding; settings: FL injected first
T1 construct: strongly proves that a single SRCR domain contains the adherence sites for AgI/II and SspB; made in house; host or cells: Drosophila expression system
Method: (§1) To determine whether AgI/II domains bound to the same site on SRCR domains, competitive binding SPR experiments were conducted in triplicates as previously described where each fragment of AgI/II (FL, A3VP1, or C123) or SspB (FL, A3VP1 or C123) was initially passed over the chip surface immobilized with either iSRCR1, iSRCR123 or SAG for 60 seconds to saturate available binding sites. The response curve of AgI/II or SspB first fragment was recorded, where the maximal RU (RU1) was considered as the base line for the second injection, and thereafter the competing fragment was injected and its response was recorded as RU2. The adherence of the second fragment was then calculated (RU2−RU1) for all SPR competing assay as reported earlier.

iSRCR1 (Deglycosylated) = target: T2, iSRCR1 (Deglycosylated) (Homo sapiens, UniProt Q9UGM3); experiment: SPR binding of analytes to on-chip deglycosylated iSRCR1; settings: ligand iSRCR1 (Deglycosylated)
T2 construct: strongly proves that a single SRCR domain contains the adherence sites for AgI/II and SspB; made in house; host or cells: Drosophila expression system
Method: (§2) Real time binding analyses of the SRCR domains with AgI/II fragments were carried out using the BIAcore 2000 system. […] Self association of iSRCR1 or iSRCR123 (at 2 μM) were also determined in a similar manner as described above. Finally to determine the effect of calcium SPR analysis was carried out by dialyzing the analytes and ligands in binding buffer devoid of CaCl2.
(§3) On-chip Deglycosylation of the iSRCR1 and iSRCR123 was carried out after immobilizing them on CM5 sensor chip. Enzymatic deglycosylation was done to remove N- and O-linked carbohydrates from iSRCR1 and iSRCR123. Briefly, after immobilization of iSRCR1 and iSRCR123, deglycosylation was carried out at native conditions by incubating the entire chip surface externally with a cocktail containing a total reaction volume of 40 μl made up of 4 μl of 10×G7reaction buffer, 4 μl of 10% NP40, 4 μl of Neuraminidase (Sigma), 18 μl water and 10 μl of O-glycosidase (New England Biolabs, Inc.,) and similarly following manufacturers protocols for EndoH (New England Biolabs, Inc). Later, the chip was sealed and incubated overnight at 37° C. Subsequently the chip was thoroughly washed with binding buffer (20 mM HEPES, 150 mM NaCl, 2.5 mM CaCl2) to remove the deglycosylating enzymes and other remnants. Binding studies with FL^AgI/II and FL^SspB and subfragments were then carried out as described above and regenerated as described in Table 2.
(§4) In addition, the SRCR holding two distinct surfaces compounded the elucidation of individual kinetics, and presently there are no modeling protocols available to determine the individual affinities for such a system, therefore for simplicity we have utilized a single site 1:1 Langmuir model. All experiments were carried out in triplicates and the kinetics of the association (KA) and dissociation (KD) rate constants were deduced using the 1:1 Langmuir Kinetic model on the BIA-Evaluation software. The concentration (C in μM) of analyte (FL^AgI/II or FL^SspB at 2 μM) that adhered to the immobilized ligand (iSRCR1, iSRCR123) within the flow cell was calculated using the formula C=(RU/MW)×(1/V), where RU is resonance unit (1 RU=1 pg of bound protein), MW is molecular weight of analyte and V is volume of flow cell (1.2×10^−10 L).

iSRCR1 [2] = target: T1, iSRCR1; experiment: SPR binding of analytes to immobilized iSRCR1 (CM5 chip, 1:1 Langmuir); settings: for direct binding to immobilized iSRCR1 (in words): substance alone over CM5 chip
Method: as §2, §4

iSRCR123 [3] = target: T3, iSRCR123 (Homo sapiens, UniProt Q9UGM3); experiment: Competition adherence SPR on immobilized iSRCR123; format: binding; settings: FL injected first
T3 construct: multiple SRCR domains have better adherence capability compared to that of a single SRCR domain; made in house; host or cells: Drosophila expression system
Method: as §1

[4] = target: T4, iSRCR123 (Deglycosylated) (Homo sapiens, UniProt Q9UGM3); experiment: SPR binding of analytes to on-chip deglycosylated iSRCR123; settings: ligand iSRCR123 (Deglycosylated)
T4 construct: multiple SRCR domains have better adherence capability compared to that of a single SRCR domain; made in house; host or cells: Drosophila expression system
Method: as §2, §3, §4

iSRCR123 [5] = target: T3, iSRCR123; experiment: SPR binding of analytes to immobilized iSRCR123 (CM5 chip, 1:1 Langmuir); settings: for direct binding to immobilized iSRCR123 (in words): substance alone over CM5 chip
Method: as §2, §4

SAG = target: T5, SAG (Homo sapiens, UniProt Q9UGM3); settings: from reference [15]; read-out: affinity of interaction with SAG; cited from earlier work
T5 construct: from tissue; host or cells: saliva (purified SAG, gift)

S. mutans UA159 [6] = experiment: Confocal microscopy of iSRCR adherence to bacteria; format: cell-based; settings: 10 μM
Method: S. mutans UA159 and S. gordonii DL1 were grown overnight in TSY (30 g/L of Trypticase soy broth and 0.5 g/L yeast extract, pH 7.2) media on an eight-well Lab Tek Chamber slide system (Sigma). The cells were fixed with 3% paraformaldehyde, washed with binding buffer (20 mM HEPES pH 7.4, 150 mM NaCl and 2.5 mM CaCl2), and thereafter iSRCR1 or iSRCR123 (10 μM) were added to the cells and incubated for 60 min. The unbound SRCRs were removed by repeated washing using the binding buffer. Subsequently, Alexa fluor 488 conjugated Anti-His-tag antibody (EMD Millipore, Inc) (1:50 dilution) that can bind to the His Tag on SRCRs was added. After 60 min incubation the unbound antibody was washed away thoroughly using binding buffer, and the chamber walls were gently removed. Cover slips were then mounted with 15 μl of fluoromount-G with DAPI (Southern Biotech Inc) to stain bacterial nuclei and were sealed until ready to be imaged. The experiment without SRCRs served as control. All slides were imaged using Leica SP1 UV Confocal Laser Scanning Microscope and Zeiss LSM 710 Confocal Laser Scanning Microscope at the UAB-High resolution imaging facility (UAB-HRIF).

S. gordonii DL1 [7] = experiment: Aggregation assay (OD700 over 60 min); format: cell-based; settings: iSRCR 10 μM or SAG, 6 mM CaCl2
Method: (§5) Aggregation assays were performed as described earlier with slight modifications. Briefly, S. mutans UA159 and S. gordonii DL1 cells were grown in TSY broth media overnight at 37° C. in the presence of 5% CO2. The bacteria were centrifuged at 5000×g and washed with a buffer containing 20 mM HEPES pH 7.4, 150 mM NaCl and re-suspended to an approximate OD700 of 1. The bacterial suspension (900 μl) was mixed with 100 μl of SAG or iSRCR1 (10 μM) or iSRCR123 ([…]) or commercially synthesized (Think Peptides, Inc) SRCRP2 peptide with fluorescein amidite (FAM) at the carboxyl end ([…]-[FAM]) (SEQ ID NO:9, at both 400 μg/ml and 1 mg/ml) in the presence of 6 mM CaCl2 and aggregation was measured by recording OD700over 60 min at 5 min intervals, where the buffer alone was used as control. All experiments were carried out at least five times, and the results were analyzed with One-way ANOVA. Post-hoc testing where *, P<0.05 was considered statistically significant and results were presented as the percentage of cells aggregated.

S. mutans UA159 [8] = experiment: Aggregation assay (OD700 over 60 min); format: cell-based; settings: iSRCR 10 μM or SAG, 6 mM CaCl2
Method: as §5

S. gordonii DL1 [9] = experiment: Flow cytometric analysis of iSRCR adherence to bacteria; format: cell-based; settings: 10 μM, compared with S. mutans
Method: (§6) S. mutans UA159 and S. gordonii DL1 cells were grown overnight in TSY broth media at 37° C. and washed thoroughly with FACS buffer (20 mM HEPES pH 7.4, 150 mM NaCl and 5% non-fat dry milk) to reduce non-specific binding. Subsequently, 10 μM of iSRCR1 or iSRCR123 were added to 100 μl of cells (1×10^7 cells/ml) in binding buffer (FACS buffer+2.5 mM CaCl2) and incubated for 60 min at 37° C. The cells were later washed thoroughly with binding buffer to remove unbound iSRCRs. Subsequently, Anti-His tag Alexafluor 488 antibody (1:50 dilution) (EMD Millipore, Inc) that adheres to the His tag present on SRCRs was added to the cells and incubated for 30 min, washed three times and resuspended in 200 μl of binding buffer. Samples without iSRCRs served as control. Samples were then assayed using the FACScan machine (BD Biosciences) at the Analytical and Preparative Cytometry Facility (APCF) at UAB, and data obtained was analyzed using FlowJo 7.2.4 software.

S. mutans UA159 [10] = experiment: as above; format: cell-based; settings: 10 μM
Method: as §6

AgI/II VheI (S. mutans) = experiment: SPR binding of SRCR peptide to immobilized surface protein (Example 3)
Method: (§7) Binding of the SRCR peptide […] (SEQ ID NO: 10) to immobilized bacterial surface proteins was determined using procedures as described in Example 1.
(§8) The interaction of the SRCR peptide […] (SEQ ID NO:10) with immobilized bacterial surface proteins AgI/II, SspB and GbpC as examined by surface plasmon resonance studies are shown in FIGS. 27A, 27B and 27C respectively, and binding affinities determined from these studies are listed in Table 8.

GbpC (S. mutans) = experiment: as above
Method: as §7, §8

SspB VheI (S. gordonii) = experiment: as above
Method: as §7, §8

T3 sequence (Q9UGM3 102-463 limits assumed): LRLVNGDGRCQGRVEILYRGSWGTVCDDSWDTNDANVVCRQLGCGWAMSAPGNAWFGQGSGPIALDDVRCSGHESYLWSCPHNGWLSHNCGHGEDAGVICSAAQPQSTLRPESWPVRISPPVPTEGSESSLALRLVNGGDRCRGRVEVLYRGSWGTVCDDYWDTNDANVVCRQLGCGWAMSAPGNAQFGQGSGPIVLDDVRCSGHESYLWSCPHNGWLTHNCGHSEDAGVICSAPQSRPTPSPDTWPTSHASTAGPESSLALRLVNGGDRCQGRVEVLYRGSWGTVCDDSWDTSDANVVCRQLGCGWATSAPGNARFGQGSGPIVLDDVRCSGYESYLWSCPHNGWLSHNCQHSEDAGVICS
T4 sequence (Q9UGM3 102-463 limits assumed): as above
AgI/II VheI (S. mutans), sequence (P23504 464-840 limits assumed): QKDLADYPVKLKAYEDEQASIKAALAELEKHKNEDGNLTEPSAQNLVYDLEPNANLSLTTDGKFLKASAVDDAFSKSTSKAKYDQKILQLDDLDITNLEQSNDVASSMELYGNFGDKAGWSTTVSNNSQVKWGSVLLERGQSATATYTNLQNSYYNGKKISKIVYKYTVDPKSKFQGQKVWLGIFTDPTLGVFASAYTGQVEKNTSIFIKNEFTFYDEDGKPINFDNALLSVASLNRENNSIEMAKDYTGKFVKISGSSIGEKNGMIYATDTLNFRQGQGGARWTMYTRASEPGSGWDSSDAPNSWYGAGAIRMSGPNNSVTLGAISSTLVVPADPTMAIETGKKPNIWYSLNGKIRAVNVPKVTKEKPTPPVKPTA
T1 sequence (Q9UGM3 102-202 limits assumed): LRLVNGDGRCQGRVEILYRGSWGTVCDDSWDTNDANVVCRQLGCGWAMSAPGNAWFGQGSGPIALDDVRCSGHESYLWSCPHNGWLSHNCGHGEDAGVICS
T2 sequence (Q9UGM3 102-202): as the sequence (Q9UGM3 102-202 limits assumed) above
T5 sequence (Q9UGM3 20-2413): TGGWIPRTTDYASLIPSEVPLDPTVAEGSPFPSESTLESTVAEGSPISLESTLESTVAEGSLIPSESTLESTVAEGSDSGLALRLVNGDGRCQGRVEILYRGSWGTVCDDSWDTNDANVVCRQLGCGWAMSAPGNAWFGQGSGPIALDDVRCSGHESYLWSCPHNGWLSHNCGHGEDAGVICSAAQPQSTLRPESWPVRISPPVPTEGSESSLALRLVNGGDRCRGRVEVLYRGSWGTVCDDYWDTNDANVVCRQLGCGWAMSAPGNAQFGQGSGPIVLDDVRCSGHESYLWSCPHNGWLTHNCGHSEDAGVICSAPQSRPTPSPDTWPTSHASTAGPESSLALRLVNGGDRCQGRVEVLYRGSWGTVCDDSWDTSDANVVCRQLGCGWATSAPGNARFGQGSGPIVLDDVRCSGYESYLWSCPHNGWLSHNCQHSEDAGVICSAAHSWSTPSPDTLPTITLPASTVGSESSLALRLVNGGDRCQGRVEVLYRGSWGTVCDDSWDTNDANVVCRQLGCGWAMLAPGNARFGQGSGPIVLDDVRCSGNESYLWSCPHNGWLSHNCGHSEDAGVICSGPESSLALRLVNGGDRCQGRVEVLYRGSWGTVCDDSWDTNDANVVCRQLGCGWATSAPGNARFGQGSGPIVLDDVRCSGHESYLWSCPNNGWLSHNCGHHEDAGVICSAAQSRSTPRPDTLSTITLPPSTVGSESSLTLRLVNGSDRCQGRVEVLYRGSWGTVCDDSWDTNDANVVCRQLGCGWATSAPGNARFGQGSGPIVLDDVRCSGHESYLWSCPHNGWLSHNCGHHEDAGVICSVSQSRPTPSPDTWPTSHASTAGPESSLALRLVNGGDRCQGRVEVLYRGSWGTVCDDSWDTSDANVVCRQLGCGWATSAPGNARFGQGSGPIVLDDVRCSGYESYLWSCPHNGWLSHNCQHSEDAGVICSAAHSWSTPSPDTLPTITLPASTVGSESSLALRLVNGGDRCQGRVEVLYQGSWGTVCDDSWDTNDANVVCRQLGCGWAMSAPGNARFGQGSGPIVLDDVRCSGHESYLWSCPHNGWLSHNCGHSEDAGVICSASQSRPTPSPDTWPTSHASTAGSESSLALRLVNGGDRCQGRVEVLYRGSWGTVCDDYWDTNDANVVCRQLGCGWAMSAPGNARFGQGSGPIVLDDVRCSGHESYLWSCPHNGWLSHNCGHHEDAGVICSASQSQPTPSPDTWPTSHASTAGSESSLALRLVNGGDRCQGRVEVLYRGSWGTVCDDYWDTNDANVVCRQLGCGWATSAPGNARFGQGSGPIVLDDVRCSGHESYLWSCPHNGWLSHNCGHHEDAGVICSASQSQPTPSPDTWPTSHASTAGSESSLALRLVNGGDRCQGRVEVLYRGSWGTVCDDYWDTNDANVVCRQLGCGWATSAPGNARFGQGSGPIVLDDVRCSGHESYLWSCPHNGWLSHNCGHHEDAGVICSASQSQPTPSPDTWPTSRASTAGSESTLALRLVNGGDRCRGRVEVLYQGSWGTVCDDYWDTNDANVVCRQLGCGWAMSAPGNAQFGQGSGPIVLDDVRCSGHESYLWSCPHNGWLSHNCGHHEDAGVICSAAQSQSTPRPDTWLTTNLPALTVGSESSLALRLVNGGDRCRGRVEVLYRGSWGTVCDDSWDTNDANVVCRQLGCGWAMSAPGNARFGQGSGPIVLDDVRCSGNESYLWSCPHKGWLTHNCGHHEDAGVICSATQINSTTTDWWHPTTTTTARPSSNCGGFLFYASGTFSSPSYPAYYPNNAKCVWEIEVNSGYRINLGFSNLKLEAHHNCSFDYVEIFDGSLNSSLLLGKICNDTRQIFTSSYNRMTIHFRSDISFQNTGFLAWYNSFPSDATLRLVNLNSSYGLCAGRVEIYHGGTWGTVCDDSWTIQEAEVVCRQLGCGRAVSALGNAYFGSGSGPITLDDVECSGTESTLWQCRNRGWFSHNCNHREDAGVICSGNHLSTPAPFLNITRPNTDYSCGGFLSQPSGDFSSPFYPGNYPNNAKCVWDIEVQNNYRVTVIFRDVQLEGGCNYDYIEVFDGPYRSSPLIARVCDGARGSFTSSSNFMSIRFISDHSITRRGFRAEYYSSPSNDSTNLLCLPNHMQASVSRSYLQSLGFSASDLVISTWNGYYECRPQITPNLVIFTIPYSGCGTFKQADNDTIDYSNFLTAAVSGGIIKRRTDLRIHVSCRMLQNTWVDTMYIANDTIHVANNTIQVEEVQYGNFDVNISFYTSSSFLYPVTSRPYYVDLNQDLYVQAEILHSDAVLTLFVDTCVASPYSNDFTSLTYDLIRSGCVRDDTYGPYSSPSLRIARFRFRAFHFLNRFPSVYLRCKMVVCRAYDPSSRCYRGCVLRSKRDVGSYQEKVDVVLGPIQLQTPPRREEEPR

In the case of “FL^AgI/II: S. mutans AgI/II full length construct (167.5 kDa)”, the “inhibition of binding of the A3VP1 fragment of the same protein” value (iSRCR1 [1]) is reported as 46%, the “inhibition of binding of the C123 fragment of the same protein” value (iSRCR1 [1]) is reported as 36% and the KA (iSRCR1 (Deglycosylated)) is reported as 865000 M⁻¹. It also gave a Kd (iSRCR1 (Deglycosylated)) of 1160 nM, a ka (iSRCR1 (Deglycosylated)) of 49700 M⁻¹ s⁻¹ and a kd (iSRCR1 (Deglycosylated)) of 0.0575 s⁻¹. For the same substance, the KA (iSRCR1 [2]; ligand iSRCR1) was 1.31e+08 M⁻¹, the Kd (iSRCR1 [2]; ligand iSRCR1) was 7.69 nM and the ka (iSRCR1 [2]; ligand iSRCR1) was 127000 M⁻¹ s⁻¹. For the same substance, the kd (iSRCR1 [2]; ligand iSRCR1) was 0.000976 s⁻¹, the “inhibition of binding of the A3VP1 fragment of the same protein” value (iSRCR123 [3]) was 44% and the “inhibition of binding of the C123 fragment of the same protein” value (iSRCR123 [3]) was 25%. For the same substance, the KA [4] was 6.82e+06 M⁻¹, the Kd [4] was 147 nM and the ka [4] was 3160 M⁻¹ s⁻¹. The kd [4] was 0.000464 s⁻¹, the “quantity of protein that adhered to iSRCR123, higher than iSRCR1” value (iSRCR123 [5]; analyte at 2 μM, iSRCR123 versus iSRCR1) was 16% and the KA (iSRCR123 [5]; ligand iSRCR123) was 1.34e+08 M⁻¹. For the same substance, the Kd (iSRCR123 [5]; ligand iSRCR123) was 7.46 nM, the ka (iSRCR123 [5]; ligand iSRCR123) was 99700 M⁻¹ s⁻¹ and the kd (iSRCR123 [5]; ligand iSRCR123) was 0.000743 s⁻¹. The Kd (SAG) was 33.3 nM.

In the case of “iSRCR123: recombinant construct of three tandem SRCR domains of Gp340 (43 kDa)”, the “binding to cells by confocal microscopy (in words)” value (S. mutans UA159 [6]) is reported as “binding”, the “percentage of cells aggregated” value (S. gordonii DL1 [7]) is reported as 48% and the “percentage of cells aggregated” value (S. mutans UA159 [8]) is reported as 69%. For the same substance, the “adherence by FACS (in words)” value (S. gordonii DL1 [9]) was “lower adherence” and the “increase in fluorescence intensity compared to the control” value (S. mutans UA159 [10]) was ~100 fold.

In the case of thaumatin [reference compound], the “direct binding to immobilized iSRCR1 (in words)” value (iSRCR1 [2]) is reported as “not” and the “direct binding to immobilized iSRCR123 (in words)” value (iSRCR123 [5]) is reported as “not”.

In the case of Lysozyme [reference compound], the “direct binding to immobilized iSRCR1 (in words)” value (iSRCR1 [2]) is reported as “binding” and the “direct binding to immobilized iSRCR123 (in words)” value (iSRCR123 [5]) is reported as “binding”.

ETNDANVVARQL [SRCR peptide] gave a KA (AgI/II VheI (S. mutans)) of 1.56e+08 M⁻¹, a Kd (AgI/II VheI (S. mutans)) of 6.42 nM and an Rmax (AgI/II VheI (S. mutans)) of 43.3 Ru. For the same substance, the ka (AgI/II VheI (S. mutans)) was 1.08 × 10^7 1/ms, the kd (AgI/II VheI (S. mutans)) was 0.696 s⁻¹ and the KA (GbpC (S. mutans)) was 2.57e+08 M⁻¹. For the same substance, the Kd (GbpC (S. mutans)) was 3.89 nM, the Rmax (GbpC (S. mutans)) was 232 Ru and the ka (GbpC (S. mutans)) was 1.47 × 10^7 1/ms. For the same substance, the kd (GbpC (S. mutans)) was 0.0573 s⁻¹, the KA (SspB VheI (S. gordonii)) was 1.42e+08 M⁻¹ and the Kd (SspB VheI (S. gordonii)) was 7.02 nM. The Rmax (SspB VheI (S. gordonii)) was 110 Ru, the ka (SspB VheI (S. gordonii)) was 4.44 × 10^6 1/ms and the kd (SspB VheI (S. gordonii)) was 0.0312 s⁻¹.
